Measured values as given in US10869858B2, “Therapeutic agent for amyotrophic disorders” (TOHOKU UNIVERSITY, priority 2015, dated 2020).

Key:
[1] = tested on: ALS patient-derived fibroblasts; assay: Degree of cell damage of ALS patient-derived fibroblasts treated with BSO 500 μmol/L, Method 2, LDH Cytotoxicity Detection Kit; format: cell-based; settings: 500 μmol/L BSO; compound at 0.1, 0.3, 1, 3 and 10 μmol/L; three days with compound; FIG. 2
Method: (§1) ALS patient-derived fibroblasts can be used to confirm the inhibitory effect of the compound of the present invention on cell death induced by treating the ALS patient-derived fibroblasts with the glutathione synthesis inhibitor, L-buthionine(S, R)sulfoximine (BSO).
(§2) 3.0×10^3 Cells per well of ALS patient-derived fibroblasts were seeded in a 96-well cell culture plate using a DMEM (low glucose) medium containing 1% FBS. One day after cell seeding, BSO was mixed in the culture medium so that the concentration thereof is 500 μmol/L. After culturing in the presence of BSO for one day, the compound of Example 1 was mixed in the culture medium so that the concentration thereof is 0.1, 0.3, 1, 3 or 10 μmol/L. After culturing in the presence of the compound for another three days, the number of living cells in each well was counted by using Cell Counting Kit-8 (manufactured by Dojindo Laboratories) to calculate cell viability. In addition, the degree of cell damage was measured by using LDH Cytotoxicity Detection Kit (manufactured by Takara Bio Inc.). Here, wells to which both BSO and the compound were not added but distilled water and DMSO that were solvents for BSO and the compound, respectively were added were used as a control of the oxidative stress loading; wells to which both BSO and the compound were added were used as a control for the effect of the test compound.

[2] = tested on: ALS patient-derived fibroblasts; assay: Cell viability of ALS patient-derived fibroblasts treated with BSO 500 μmol/L, Method 2, Cell Counting Kit-8; format: cell-based; settings: 500 μmol/L BSO; compound at 0.1, 0.3, 1, 3 and 10 μmol/L; three days with compound; FIG. 2
Method: as §1, §2

[3] = tested on: ALS patient-derived fibroblasts; assay: Inhibitory effect on cell death of ALS patient-derived fibroblasts induced by oxidative stress (BSO 100 μmol/L), Method 1, Cell Counting Kit-8; format: cell-based; settings: 100 μmol/L BSO; compound at 10 and 30 μmol/L; two days with compound; FIG. 1
Method: as §1
6.4×10^3 Cells per well of ALS patient-derived fibroblasts were seeded in a 96-well cell culture plate using a DMEM medium containing 1% FBS. One day after cell seeding, BSO was mixed in the culture medium so that the concentration thereof was 100 μmol/L. After culturing in the presence of BSO for one day, the compound of Example 1 was mixed in the culture medium so that the concentration thereof is 1, 3, 10 or 30 μmol/L. After culturing in the presence of the compound for another two days, the number of living cells in each well was counted by using Cell Counting Kit-8 (manufactured by Dojindo Laboratories) to calculate cell viability. Here, wells to which both BSO and the compound were not added but distilled water and DMSO that were solvents for BSO and the compound, respectively were added were used as a control of the oxidative stress loading; wells to which both BSO and the compound were added were used as a control for the effect of the test compound.

wobbler mice = assay: Rotarod test in ALS animal models (wobbler mice); format: in vivo; settings: 150 mg/kg orally once a day, 16 days after administration start, 10 rpm, n=14; control group 43%; P=0.018
Method: To 4-week-old wobbler mice, the compound of Example 1 (150 mg/kg) or a solvent, a 0.5% aqueous solution of methyl cellulose as a control was orally administered at a rate of 10 mL/kg once a day. Sixteen days after administration start date, the animals were placed on a mouse rotarod (manufactured by Muromachi Kikai Co., Ltd.) set at a rotation speed of 10 rpm and the time to fall was measured (rotarod test). The rotarod walking time was measured three times, and the upper limit of one measurement time was 300 seconds.

O=C(CC(C(=O)O)c1c[nH]c2ccccc12)c1ccc(F)cc1F (stereo not shown) [Example 1, 4-(2,4-difluorophenyl)-2-(1H-indol-3-yl)-4-oxobutanoic acid]
prevention of cytotoxicity (degree of cell damage, LDH) induced by BSO [1]: statistically significantly prevented
prevention of low cell viability induced by BSO [2]: statistically significantly prevented the low cell viability
inhibition of cell death induced by BSO (cell viability) [3]: statistically significantly inhibited cell death
occurrence ratio of animals whose rotarod walking time exceeded 300 seconds (wobbler mice): 86%
